# According to patent publication US5807854A, “Pyrimidone derivatives with antifungal activity” (J. Uriah & Cia. S.A., priority 1995, dated 1998):
# Experiments:
# [1] = system: C. albicans; test: In vitro activity by the agar dilution method, C. albicans; type: cell-based; conditions: Candida albicans; Kimmig's agar, 25° C., 48 h; read-out: MIC (minimal inhibitory concentration), C. albicans
# Protocol: (§1) In vitro activity was evaluated against C. albicans, C. krusei, and Aspergillus fumigatus by the agar dilution method. Test strains were either clinical isolates or were obtained from ATCC. Stock solutions containing 800 μg/mL were prepared by solving the test products in 50% ethanol. The culture medium used was Kimmig's agar (K. A., E. Merck) supplemented with 0.5% glycerol. Plates containing serial dilutions (80 to 0.025 gg/imL) of the test products were inoculated with 10 μL of the fungal inocula, containing 10^5 colony forming units (cfu)/mL. Plates were incubated at 25° C. during 48 h for Candida sp. and during 5 days for Apergillus fumigatus. Following incubation MICs (minimal inhibitory concentrations) were determined.
# [2] = system: C. krusei; test: In vitro activity by the agar dilution method, C. krusei; type: cell-based; conditions: Pichia kudriavzevii; Kimmig's agar, 25° C., 48 h; read-out: MIC (minimal inhibitory concentration), C. krusei
# Protocol: as §1
# [3] = system: Aspergillus fumigatus; test: In vitro activity by the agar dilution method, Aspergillus fumigatus; type: cell-based; conditions: 120 h, Kimmig's agar, 25° C., 5 days, read-out: MIC (minimal inhibitory concentration), Asp. fumigatus
# Protocol: as §1
# [4] = system: Candida albicans; test: In Vivo Activity (Systemic Candidiasis); conditions: po, 576 h, orally at 1 mg/kg at 1, 4 and 24 h after infection, male mice, i.v. infection, read-out: protection on the day where all the animals in the control group had died
# Protocol: Groups of 10 male mice were inoculated i.v. with 0.2 mL of a suspension containing (2-8)×10^7 cfu/mL of Candida albicans. Compounds were administered orally at 1 mg/kg (or at 10 mg/kg for those compounds marked with an asterisk) at times 1, 4 and 24 h after infection.
MIC [1] [µg/mL],MIC [2] [µg/mL],MIC [3] [µg/mL],Structure (SMILES),responders at 1 mg/kg [4] [%]
0.15,0.63,10,"C[C@@H](n1cnc2cc(N(C)C)c(F)cc2c1=O)[C@](O)(Cn1cncn1)c1ccc(F)cc1F [Example 4, (1R,2R)-3-[2-(2,4-Difluorophenyl)-2-hydroxy-1-methyl-3-(1H-1,2,4-triazol-1-yl)propyl]-7-dimethylamino-6-fluoroquinazolin-4(3H)-one]",–
0.07,5,10,"C[C@@H](n1cnc2ccccc2c1=O)[C@](O)(Cn1cncn1)c1ccc(F)cc1F [Example 5, (1R,2R)-3-[2-(2,4-Difluorophenyl)-2-hydroxy-1-methyl-3-(1H-1,2,4-triazol-1-yl)propyl]quinazolin-4(3H)-one]",–
–,–,–,"C[C@@H](n1cnc2c(Cl)cc(Cl)cc2c1=O)[C@](O)(Cn1cncn1)c1ccc(F)cc1F [Example 9, (1R,2R)-6,8Dichloro-3-[2-(2,4-difluorophenyl)-2-hydroxy-1-methyl-3-(1H-1,2,4-triazol-1-yl)propyl]quinazolin4(3H)-one]",100
–,–,–,"C[C@@H](n1cnc2ccc(Br)cc2c1=O)[C@](O)(Cn1cncn1)c1ccc(F)cc1F [Example 10, (1R,2R)-6-Bromo-3-[2-(2,4-difluorophenyl)-2-hydroxy-1-methyl-3-(1H-1,2,4-triazol-1-yl)propyl]quinazolin4(3H)-one]",100
≤ 0.03,1.25,1.25,"C[C@@H](n1cnc2cc(F)ccc2c1=O)[C@](O)(Cn1cncn1)c1ccc(F)cc1F [Example 12, (1R,2R)-3-[2-(2,4-Difluorophenyl)-2-hydroxy-1-methyl-3-(1H-1,2,4-triazol-1-yl)propyl]-7-fluoroquinazolin-4(3H)-one]",–
–,–,–,"C[C@@H](n1cnc2cc(OCC(F)F)ccc2c1=O)[C@](O)(Cn1cncn1)c1ccc(F)cc1F [Example 19, (1R,2R)-7-(2,2-Difluoroethoxy)-3-[2-(2,4-difluorophenyl)-2-hydroxy-1-methyl-3-(1H-1,2,4-triazol-1-yl)propyl]quinazolin-4(3H)-one]",100
≤ 0.03,2.5,40,"Cc1ccc2ncn([C@H](C)[C@](O)(Cn3cncn3)c3ccc(F)cc3F)c(=O)c2c1 [Example 24, (1R,2R)-3-[2-(2,4-Difluorophenyl)-2-hydroxy-1-methyl-3-(1H-1,2,4-triazol-1-yl)propyl]-6-methylquinazolin-4(3H)-one]",–
–,–,–,"C[C@@H](n1cnc2cc(-c3ccc(C(F)(F)F)cc3)sc2c1=O)[C@](O)(Cn1cncn1)c1ccc(F)cc1F [Example 33, (1R,2R)-3-[2-(2,4-Difluorophenyl)-2-hydroxy-1-methyl-3-(1H-1,2,4-triazol-1-yl)propyl]-6-[(4-trifluoromethyl)phenyl]thieno[3,2-d]pyrimidin-4(3H)-one]",100
–,–,–,"C[C@@H](n1cnc2cc(-c3ccc(OCC(F)(F)C(F)F)cc3)sc2c1=O)[C@](O)(Cn1cncn1)c1ccc(F)cc1F [Example 34, (1R,2R)-3-[2-(2,4-Difluorophenyl)-2-hydroxy-1-methyl-3-(1H-1,2,4-triazol-1-yl)propyl]-6-[4-(2,2,3,3-tetrafluoropropoxy)phenyl]thieno[3,2-d]pyrimidin-4(3H)-one]",100
≤ 0.03,5,20,"C[C@@H](n1cnc2cc3ccccc3cc2c1=O)[C@](O)(Cn1cncn1)c1ccc(F)cc1F [Example 38, (1R,2R)-3-[2-(2,4-Difluorophenyl)-2-hydroxy-1-methyl-3-(1H-1,2,4-triazol-1-yl)propyl]benzo[g]quinazolin4(3H)-one]",–
–,–,–,"C[C@@H](n1cnc2cc(-n3cncn3)ccc2c1=O)[C@](O)(Cn1cncn1)c1ccc(F)cc1F [Example 48, (1R,2)-3-[2-(2,4-Difluorophenyl)-2-hydroxy-1-methyl-3-(1H-1,2,4-triazol-1-yl)propyl]-7-(1H-1,2,4-triazol-1-yl)quinazolin-4(3H)-one]",100
–,–,–,"C[C@@H](n1cnc2cc(S(C)(=O)=O)ccc2c1=O)[C@](O)(Cn1cncn1)c1ccc(F)cc1F [Example 51, (1R,2R)-3-[2-(2,4-Difluorophenyl)-2-hydroxy-1-methyl-3-(1H-1,2,4-triazol-1-yl)propyl]-7-(methylsulfonyl)quinazolin-4(3H)-one]",100
–,–,–,"C[C@@H](n1cnc2cc(Cl)ccc2c1=O)[C@](O)(Cn1cncn1)c1ccc(Cl)cc1Cl [Example 52, (1R,2R)-7-Chloro-3-[2-(2,4-dichlorophenyl)-2-hydroxy-1-methyl-3-(1H-1,2,4-triazol-1-yl)propyl]quinazolin-4(3H)-one]",100
–,–,–,"C[C@@H](n1cnc2cc(C(F)(F)F)ccc2c1=O)[C@](O)(Cn1cncn1)c1ccc(Cl)cc1Cl [Example 53, (1R,2R)-3-[2-(2,4-Dichlorophenyl)-2-hydroxy-1-methyl-3-(1H-1,2,4-triazol-1-yl)propyl]-7-trifluoromethylquinazolin-4(3H)-one]",100
–,–,–,"C[C@@H](n1cnc2cc(-c3ccc(Cl)cc3)sc2c1=O)[C@](O)(Cn1cncn1)c1ccc(Cl)cc1Cl [Example 54, (1R,2R)-6-(4-Chlorophenyl)-3-[2-(2,4-dichlorophenyl)-2-hydroxy-1-methyl-3-(1H-1,2,4-triazol-1-yl)propyl]thieno[3,2-d]pyrimidin-4(3H)-one]",100
–,–,–,"C[C@@H](n1cnc2cc(-c3ccc(C#N)cc3)sc2c1=O)[C@](O)(Cn1cncn1)c1ccc(Cl)cc1Cl [Example 55, (1R,2R)-4-[3-[2-(2,4-Dichlorophenyl)-2-hydroxy-1-methyl-3-(1H-1,2,4-triazol-1-yl)propyl]-4-oxo-3,4-dihydrothieno[3,2-d]pyrimidin-6-yl]benzonitrile]",100
≤ 0.03,0.31,0.63,"C[C@@H](n1cnc2cc(Sc3ccccc3)ccc2c1=O)[C@](O)(Cn1cncn1)c1ccc(F)cc1F [Example 60, (1R,2R)-3-[2-(2,4-Difluorophenyl)-2-hydroxy-1-methyl-3-(1H-1,2,4-triazol-1-yl)propyl]-7-(phenylthio)quinazolin-4(3H)-one]",–
–,–,–,"C[C@@H](n1cnc2cc(-c3ccc(C(=N)NO)cc3)sc2c1=O)[C@](O)(Cn1cncn1)c1ccc(F)cc1F [Example 62, (1R,2R)-3-[2-(2,4-Difluorophenyl)-2-hydroxy-1-methyl-3-(1H-1,2,4-triazol-1-yl)propyl]-6-[4-[(hydroxyamino)iminomethyl]phenyl]thieno[3,2-d]pyrimidin-4(3H)-one]",100
–,–,–,"C[C@@H](n1cnc2cc(-c3ccc(C(=N)NC#N)cc3)sc2c1=O)[C@](O)(Cn1cncn1)c1ccc(F)cc1F [Example 65, (1R,2R)-6-[4-[Cyanoamino(imino)methyl]phenyl]-3-[2-(2,4-difluorophenyl)-2-hydroxy-1-methyl-3-(1H-1,2,4-triazol-1-yl)propyl]thieno[3,2-d]pyrimidin-4(3H)-one]",100
–,–,–,"C[C@@H](n1cnc2cc(-c3ccc(C4=NCCO4)cc3)sc2c1=O)[C@](O)(Cn1cncn1)c1ccc(F)cc1F [Example 69, (1R,2R)-3-[2-(2,4-Difluorophenyl)-2-hydroxy-1-methyl-3-(1-H-1,2,4-triazol-1-yl)propyl]-6-[4-(4,5-dihydrooxazol-2-yl)phenyl]thieno[3,2-d]pyrimidin-4(3H)-one]",100
